Experimental findings from ChEMBL document CHEMBL6074670, “Discovery of NP3-253, a Potent Brain Penetrant Inhibitor of the NLRP3 Inflammasome” (J Med Chem, 2024) are described below.

The target of assay [1] is NACHT, LRR and PYD domains-containing protein 3 (Mus musculus, UniProt Q8R4B8). Description: Inhibition of NLRP3 inflammasome in C57BL/6J mouse whole blood assessed as reduction in LPS/ATP induced IL-1beta secretion preincubated for 60 mins followed by LPS addition for 4 hrs prior to ATP addition for 30 mins by HTRF method. The format is tissue-based.
For assay [2], the target named is NACHT, LRR and PYD domains-containing protein 3 (Mus musculus) (UniProt Q8R4B8). In words: In vivo inhibition of NLRP3 in LPS/ATP-induced C57BL/6JRi mouse peritonitis model assessed as reduction in IL-1beta level at 3 mg/kg, po preadministered with compound for 3 hrs followed by LPS stimulation for 2 hrs and measured 15 mins after ATP addition. Type of assay: functional, organism-based. The settings on record: time 315.0 min.

For assay [3] the target is unchanged. In words: In vivo inhibition of NLRP3 in LPS-induced C57BL/6JRi mouse neuroinflammation model assessed as reduction in blood IL-1beta level at 0.02 mg/kg, po pretreated with LPS for 23 hrs followed by compound addition for 1 hr prior to second dose of LPS addition and measured after 4 hrs. The format is functional, organism-based. Particulars: time 5.0 hrs.

For assay [4] the target is unchanged. Description: In vivo inhibition of NLRP3 in LPS-induced C57BL/6JRi mouse neuroinflammation model assessed as reduction in blood IL-1beta level at 2 mg/kg, po pretreated with LPS for 23 hrs followed by compound addition for 1 hr prior to second dose of LPS addition and measured after 4 hrs. The format is functional, organism-based. Particulars: time 5.0 hrs.

The target is the same in assay [5]. Description: In vivo inhibition of NLRP3 in LPS/ATP-induced C57BL/6JRi mouse peritonitis model assessed as reduction in IL-1beta level at 2 mg/kg, po preadministered with compound for 3 hrs followed by LPS stimulation for 2 hrs and measured 15 mins after ATP addition. Particulars: time 315.0 min. Type of assay: functional, organism-based.
The next assay concerns the target T1, Pyrin (Homo sapiens, UniProt O15553).
T1 sequence (O15553 whole entry): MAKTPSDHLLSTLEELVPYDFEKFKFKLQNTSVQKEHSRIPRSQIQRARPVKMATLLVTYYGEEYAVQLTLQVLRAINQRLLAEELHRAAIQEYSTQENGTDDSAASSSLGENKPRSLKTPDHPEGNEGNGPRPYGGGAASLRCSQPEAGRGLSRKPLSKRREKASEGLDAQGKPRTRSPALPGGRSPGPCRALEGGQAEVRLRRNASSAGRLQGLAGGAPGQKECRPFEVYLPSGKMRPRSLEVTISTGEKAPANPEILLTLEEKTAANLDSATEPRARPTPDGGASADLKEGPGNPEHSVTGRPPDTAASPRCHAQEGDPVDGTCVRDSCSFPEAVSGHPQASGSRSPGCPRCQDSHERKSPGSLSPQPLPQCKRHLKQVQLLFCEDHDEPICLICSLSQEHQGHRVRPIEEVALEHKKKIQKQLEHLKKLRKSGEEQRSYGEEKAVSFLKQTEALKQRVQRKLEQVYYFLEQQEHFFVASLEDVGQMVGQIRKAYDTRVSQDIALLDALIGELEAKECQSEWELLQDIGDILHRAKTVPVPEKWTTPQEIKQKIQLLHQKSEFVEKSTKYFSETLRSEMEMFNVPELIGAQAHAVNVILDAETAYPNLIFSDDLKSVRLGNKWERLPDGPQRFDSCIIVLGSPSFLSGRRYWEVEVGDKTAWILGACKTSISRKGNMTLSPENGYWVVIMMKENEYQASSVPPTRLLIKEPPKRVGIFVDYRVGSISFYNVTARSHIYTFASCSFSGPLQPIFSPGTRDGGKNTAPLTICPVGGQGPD
Description: Inhibition of pyrin inflammasome activation in human U-937 cells assessed as IL-1beta secretion preincubated for 1 hr followed by BAA473 addition and measured after 4 hrs. Type of assay: cell-based.

Assay [6] deals with NACHT, LRR and PYD domains-containing protein 3 (Mus musculus) (UniProt Q8R4B8). Description: In vivo inhibition of NLRP3 in LPS/ATP-induced C57BL/6JRi mouse peritonitis model assessed as reduction in IL-1beta level at 0.05 mg/kg, po preadministered with compound for 3 hrs followed by LPS stimulation for 2 hrs and measured 15 mins after ATP addition. The format is functional, organism-based. The settings on record: time 315.0 min.

For assay [7] the target is unchanged. Description: In vivo inhibition of NLRP3 in LPS/ATP-induced C57BL/6JRi mouse peritonitis model assessed as reduction in IL-1beta level at 0.3 mg/kg, po preadministered with compound for 3 hrs followed by LPS stimulation for 2 hrs and measured 15 mins after ATP addition. The format is functional, organism-based. Particulars: time 315.0 min.
Assay [8] addresses NLR family CARD domain-containing protein 4 (Homo sapiens) (UniProt Q9NPP4). Description: Inhibition of NLRC4 activation overexpressed in human THP-1 cells assessed as reduction in IL-1beta secretion preincubated for 1 hr followed by PrgI protein addition and measured after 20 hrs. Type of assay: cell-based.
The target of assay [9] is Sodium-dependent serotonin transporter (Homo sapiens) (UniProt P31645). In words: Binding affinity to 5HTT (unknown origin).
Assay [10] deals with T2, Muscarinic acetylcholine receptor M2 (Homo sapiens) (UniProt P08172).
T2 sequence (whole entry): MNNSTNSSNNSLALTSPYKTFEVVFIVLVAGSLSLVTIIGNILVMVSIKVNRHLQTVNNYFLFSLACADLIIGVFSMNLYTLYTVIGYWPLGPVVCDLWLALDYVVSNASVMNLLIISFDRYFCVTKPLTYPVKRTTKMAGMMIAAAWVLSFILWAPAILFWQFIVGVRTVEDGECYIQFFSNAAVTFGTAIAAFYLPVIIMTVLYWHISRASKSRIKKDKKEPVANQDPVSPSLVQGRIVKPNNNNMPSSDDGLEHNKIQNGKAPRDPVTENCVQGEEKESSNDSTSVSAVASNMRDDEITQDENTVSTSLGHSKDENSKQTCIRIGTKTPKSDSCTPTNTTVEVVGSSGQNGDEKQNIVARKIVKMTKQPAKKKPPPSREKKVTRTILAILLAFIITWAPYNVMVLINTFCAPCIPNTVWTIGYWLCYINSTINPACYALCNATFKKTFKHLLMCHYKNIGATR
Description: Binding affinity to M2 muscarinic receptor (unknown origin).

The target in assay [11] is NACHT, LRR and PYD domains-containing protein 3 (Mus musculus) (UniProt Q8R4B8). Description: In vivo inhibition of NLRP3 in LPS-induced C57BL/6JRi mouse neuroinflammation model assessed as reduction in IL-1beta level in CSF at 0.2 mg/kg, po pretreated with LPS for 23 hrs followed by compound addition for 1 hr prior to second dose of LPS addition and measured after 4 hrs. The format is functional, organism-based. Particulars: time 5.0 hrs.

For assay [12] the target is unchanged. In words: In vivo inhibition of NLRP3 in LPS-induced C57BL/6JRi mouse neuroinflammation model assessed as reduction in IL-1beta level in CSF at 0.02 mg/kg, po pretreated with LPS for 23 hrs followed by compound addition for 1 hr prior to second dose of LPS addition and measured after 4 hrs. Type of assay: functional, organism-based. Particulars: time 5.0 hrs.

For assay [13] the target is unchanged. In words: In vivo inhibition of NLRP3 in LPS-induced C57BL/6JRi mouse neuroinflammation model assessed as reduction in IL-1beta level in CSF at 2 mg/kg, po pretreated with LPS for 23 hrs followed by compound addition for 1 hr prior to second dose of LPS addition and measured after 4 hrs. Type of assay: functional, organism-based. The settings on record: time 5.0 hrs.

Assay [14] shares this target. Description: In vivo inhibition of NLRP3 in LPS-induced C57BL/6JRi mouse neuroinflammation model assessed as reduction in blood IL-1beta level at 0.2 mg/kg, po pretreated with LPS for 23 hrs followed by compound addition for 1 hr prior to second dose of LPS addition and measured after 4 hrs. Type of assay: functional, organism-based. The settings on record: time 5.0 hrs.

The target is the same in assay [15]. In words: In vivo inhibition of NLRP3 in LPS/ATP-induced C57BL/6JRi mouse peritonitis model assessed as reduction in IL-1beta level at 0.0083 mg/kg, po preadministered with compound for 3 hrs followed by LPS stimulation for 2 hrs and measured 15 mins after ATP addition. The format is functional, organism-based. Particulars: time 315.0 min.

Structures are written as SMILES. pIC50: −log10 of the molar value. Active and inactive are the calls of the source. No cut-off for these calls is given here.

Chain of NACHT, LRR and PYD domains-containing protein 3 (Q8R4B8 whole entry, the tested form may be a part): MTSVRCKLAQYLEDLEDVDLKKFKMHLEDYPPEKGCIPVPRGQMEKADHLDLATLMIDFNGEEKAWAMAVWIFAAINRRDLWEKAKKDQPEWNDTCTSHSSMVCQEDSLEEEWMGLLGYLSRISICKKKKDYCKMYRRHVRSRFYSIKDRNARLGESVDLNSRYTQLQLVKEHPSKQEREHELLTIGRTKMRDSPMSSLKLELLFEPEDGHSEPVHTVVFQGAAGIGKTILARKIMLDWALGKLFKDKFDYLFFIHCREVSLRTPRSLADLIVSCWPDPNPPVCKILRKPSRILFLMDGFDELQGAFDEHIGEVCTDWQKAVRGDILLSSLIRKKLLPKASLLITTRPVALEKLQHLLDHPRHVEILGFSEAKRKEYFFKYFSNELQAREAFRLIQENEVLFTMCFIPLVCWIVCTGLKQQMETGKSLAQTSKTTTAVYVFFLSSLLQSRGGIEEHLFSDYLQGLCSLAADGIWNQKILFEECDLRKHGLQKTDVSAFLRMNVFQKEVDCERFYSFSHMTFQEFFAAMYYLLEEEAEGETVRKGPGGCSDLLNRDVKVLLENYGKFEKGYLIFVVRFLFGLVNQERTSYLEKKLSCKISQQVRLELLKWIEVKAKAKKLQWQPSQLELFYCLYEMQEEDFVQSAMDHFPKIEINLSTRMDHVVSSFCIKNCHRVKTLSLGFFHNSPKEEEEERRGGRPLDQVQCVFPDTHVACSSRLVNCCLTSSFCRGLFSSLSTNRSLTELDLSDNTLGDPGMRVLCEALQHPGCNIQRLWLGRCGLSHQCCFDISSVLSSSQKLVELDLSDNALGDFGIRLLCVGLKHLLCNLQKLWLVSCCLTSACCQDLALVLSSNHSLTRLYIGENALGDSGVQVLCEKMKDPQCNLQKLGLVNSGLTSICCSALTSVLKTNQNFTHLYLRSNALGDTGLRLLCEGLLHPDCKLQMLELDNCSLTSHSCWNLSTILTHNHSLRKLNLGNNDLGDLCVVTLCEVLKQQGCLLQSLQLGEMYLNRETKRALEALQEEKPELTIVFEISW
Chain of NACHT, LRR and PYD domains-containing protein 3 (Mus musculus) (Q8R4B8 whole entry, the tested form may be a part): as above
Chain of NLR family CARD domain-containing protein 4 (Homo sapiens) (Q9NPP4 whole entry, the tested form may be a part): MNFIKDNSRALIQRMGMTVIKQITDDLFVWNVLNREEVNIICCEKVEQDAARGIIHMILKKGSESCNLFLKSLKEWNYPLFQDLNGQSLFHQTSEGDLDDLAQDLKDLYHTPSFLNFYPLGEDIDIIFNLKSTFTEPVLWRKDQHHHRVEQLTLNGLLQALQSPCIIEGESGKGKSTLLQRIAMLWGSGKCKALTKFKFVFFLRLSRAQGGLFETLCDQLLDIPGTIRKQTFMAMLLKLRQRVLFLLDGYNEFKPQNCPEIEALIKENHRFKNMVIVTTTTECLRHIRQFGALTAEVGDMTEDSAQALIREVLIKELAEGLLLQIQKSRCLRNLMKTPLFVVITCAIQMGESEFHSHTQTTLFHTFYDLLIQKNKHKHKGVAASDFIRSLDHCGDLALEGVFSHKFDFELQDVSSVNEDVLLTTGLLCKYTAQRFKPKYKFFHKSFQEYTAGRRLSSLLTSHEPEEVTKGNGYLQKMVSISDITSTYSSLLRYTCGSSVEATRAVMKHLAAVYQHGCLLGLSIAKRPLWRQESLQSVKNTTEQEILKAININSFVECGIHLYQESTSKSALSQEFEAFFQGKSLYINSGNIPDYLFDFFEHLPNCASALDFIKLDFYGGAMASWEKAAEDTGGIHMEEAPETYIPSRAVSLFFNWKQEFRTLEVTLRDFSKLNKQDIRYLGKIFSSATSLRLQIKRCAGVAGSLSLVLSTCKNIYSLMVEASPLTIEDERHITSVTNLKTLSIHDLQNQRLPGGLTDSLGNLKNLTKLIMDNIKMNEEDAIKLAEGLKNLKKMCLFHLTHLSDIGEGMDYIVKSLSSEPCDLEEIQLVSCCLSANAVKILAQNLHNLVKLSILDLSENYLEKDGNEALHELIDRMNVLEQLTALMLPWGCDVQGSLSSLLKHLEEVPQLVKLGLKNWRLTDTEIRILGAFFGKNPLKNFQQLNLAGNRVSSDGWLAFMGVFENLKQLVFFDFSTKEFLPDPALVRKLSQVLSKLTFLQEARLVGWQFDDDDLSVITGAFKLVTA
Chain of Sodium-dependent serotonin transporter (Homo sapiens) (P31645 whole entry, looked up): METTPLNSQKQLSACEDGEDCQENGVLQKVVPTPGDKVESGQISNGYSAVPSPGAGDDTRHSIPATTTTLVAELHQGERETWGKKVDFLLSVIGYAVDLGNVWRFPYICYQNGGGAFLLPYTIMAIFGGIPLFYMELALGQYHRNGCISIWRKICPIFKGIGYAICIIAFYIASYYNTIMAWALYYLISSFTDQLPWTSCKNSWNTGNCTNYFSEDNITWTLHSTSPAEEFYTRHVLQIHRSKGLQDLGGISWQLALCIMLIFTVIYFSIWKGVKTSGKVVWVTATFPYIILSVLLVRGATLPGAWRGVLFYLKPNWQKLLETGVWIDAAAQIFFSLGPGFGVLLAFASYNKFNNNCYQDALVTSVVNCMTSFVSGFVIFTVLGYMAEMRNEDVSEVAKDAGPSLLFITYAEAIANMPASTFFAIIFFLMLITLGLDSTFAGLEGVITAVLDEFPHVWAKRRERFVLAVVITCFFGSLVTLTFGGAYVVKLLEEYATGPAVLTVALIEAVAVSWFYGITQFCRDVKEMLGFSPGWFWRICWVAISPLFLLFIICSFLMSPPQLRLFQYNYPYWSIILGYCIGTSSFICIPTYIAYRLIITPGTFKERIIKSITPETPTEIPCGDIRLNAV

For `Cc1cc(C)c(-c2ccc(N[C@@H]3CCCN(C)C3)nn2)c(O)c1`, in assay [1], the pIC50 is 8.24. In addition, in [2], the inhibition is 99%.

Take `Cc1cc(C(F)(F)F)cc(O)c1-c1ccc(N[C@@H]2CCCN(C)C2)nn1`: in assay [2], the inhibition is 99.5%.

As for `CCN1CCC[C@@H](Nc2ccc(-c3c(C)cc(C(F)(F)F)cc3O)nn2)C1`, the inhibition was found to be 42.5% in [3]; 94.3% in [4]; 99.6% in assay [5]; 99.4% in assay [2]; 43.9% in [6]; 98.3% in assay [7]. The inhibition was 51.6% in [11]; -2% in assay [12]; 96.5% in assay [13]; 87.7% in assay [14]; 16% in assay [15]. Besides, the pIC50 at Pyrin is less than 4.48; in assay [1], 8.60. Also, in assay [8], the inhibition result is “inactive”. Also, the result in [9] and in assay [10] was Active.

On to `Cc1cc(C(F)(F)F)cc(O)c1-c1ccc(N[C@@H]2CCCN(CCO)C2)nn1`, for which the pIC50 in assay [1] was 8.68. Further, in assay [2], the inhibition was found to be 99.6%.
